Measured values: patent publication US5043450A, “8-alkoxyquinolonecarboxylic acid and salts thereof” (priority 1986, dated 1991)
Converted amounts (≈) assume the structure as drawn.

Legend:
Format in all cases: cell-based
[1] = system: Escherichia coli NIHJ JC-2; experiment: Antibacterial spectra, MIC; settings: NIHJJC2
B. fragilis 25285 = experiment: Antibacterial spectra, MIC; settings: Bacteroides fragilis
[2] = system: Clostridium difficile I-E; experiment: Antibacterial spectra, MIC; settings: Clostridioides difficile
B. vulgatus KYA 29327 = experiment: Antibacterial spectra, MIC; settings: Phocaeicola vulgatus, KYA29327
P. aeruginosa IID 1210 = experiment: Antibacterial spectra, MIC; settings: Pseudomonas aeruginosa, IID1210
[3] = system: Pseudomonas aeruginosa V-1; experiment: Antibacterial spectra, MIC; settings: V1
[4] = system: Klebsiella pneumoniae KY(GN)6445; experiment: Antibacterial spectra, MIC
P. aeruginosa IFO 12689 = experiment: Antibacterial spectra, MIC; settings: Pseudomonas aeruginosa, IFO12689
[5] = system: S. aureus IID 670 (Terajima); experiment: Antibacterial spectra, MIC; settings: Staphylococcus aureus, IID670
[6] = system: Yersinia enterocolitica IID 981; experiment: Antibacterial spectra, MIC; settings: IID981
C. ramosum = experiment: Antibacterial spectra, MIC; settings: Thomasclavelia ramosa
[7] = system: Acinetobacter anitratus IID 876; experiment: Antibacterial spectra, MIC; settings: Acinetobacter calcoaceticus, IID876
[8] = system: Propionibacterium acens 11828; experiment: Antibacterial spectra, MIC
Pst. micros UPI 5464-1 = experiment: Antibacterial spectra, MIC; settings: Parvimonas micra, UPI54641
[9] = system: B. thetaiotaomicron (0661); experiment: Antibacterial spectra, MIC; settings: Bacteroides thetaiotaomicron
[10] = system: Salmonella enteritidis IID 604; experiment: Antibacterial spectra, MIC; settings: Salmonella enterica
F. necrophorum S-45 = experiment: Antibacterial spectra, MIC; settings: Fusobacterium necrophorum, S45
[11] = system: Peptococcus magnus KY 017; experiment: Antibacterial spectra, MIC; settings: Finegoldia magna, KY017
E. coli ATCC 10536 = experiment: Antibacterial spectra, MIC; settings: Escherichia coli, ATCC10536
[12] = system: Veillonella parvula KYA 10790; experiment: Antibacterial spectra, MIC; settings: KYA10790
S. pneumoniae IID 552 = experiment: Antibacterial spectra, MIC; settings: Streptococcus pneumoniae, IID552
B. fragilis 0558 = experiment: Antibacterial spectra, MIC; settings: Bacteroides fragilis
B. distasonis 8503 = experiment: Antibacterial spectra, MIC; settings: Parabacteroides distasonis
F. varium KYA 8501 = experiment: Antibacterial spectra, MIC; settings: Fusobacterium varium, KYA8501; 10^6 cells/ml; Gram -; read-out: MIC
[13] = system: Citrobacter freundii IID 976; experiment: Antibacterial spectra, MIC; settings: IID976
S. epidermidis IID 866 = experiment: Antibacterial spectra, MIC; settings: Staphylococcus epidermidis, IID866
S. pyogenes IID 692 = experiment: Antibacterial spectra, MIC; settings: Streptococcus pyogenes, IID692
P. mirabilis IID 994 = experiment: Antibacterial spectra, MIC; settings: Proteus mirabilis, IID994
[14] = system: Fusobacterium mortiferum 4249; experiment: Antibacterial spectra, MIC
P. maltophilia GIFU 2491 = experiment: Antibacterial spectra, MIC; settings: Stenotrophomonas maltophilia, GIFU2491
[15] = system: Alcaligenes faecalis 0114002; experiment: Antibacterial spectra, MIC
Bacilus subtilis PCI 219 = experiment: Antibacterial spectra, MIC; settings: Bacillus subtilis, PCI219
P. cepacia GIFU 518 = experiment: Antibacterial spectra, MIC; settings: Burkholderia cepacia, GIFU518
C. perfringens KYA 13123 = experiment: microbe, parasite or virus in culture; settings: Clostridium perfringens, KYA13123
[16] = system: Bacteroides fragilis GM 7000; experiment: Antibacterial spectra, MIC; settings: GM7000
[17] = system: Enterobacter cloacae IID 977; experiment: Antibacterial spectra, MIC; settings: IID977
[18] = system: Serratia marcescens IID 618; experiment: Antibacterial spectra, MIC; settings: IID618
[19] = system: Morganella morganii IID 602; experiment: Antibacterial spectra, MIC; settings: IID602
[20] = system: Peptostreptococcus anaerobius KYA 27337; experiment: Antibacterial spectra, MIC; settings: KYA27337
S. aureus Smith = experiment: Antibacterial spectra, MIC; settings: Staphylococcus aureus
E. coli ML 4707 = experiment: Antibacterial spectra, MIC; settings: Escherichia coli, ML4707; 10^6 cells/ml; Gram -
Description: (§1) The antibacterial test was carried out according to the method designated by Japan Society of Chemotherapy.

E. faecalis IID 682 = experiment: Antibacterial spectra, MIC; settings: Enterococcus faecalis, IID682; 10^6 cells/ml; Gram +
Description: as §1

[21] = system: Streptococcus pyogenes (S-8); experiment: Antibacterial spectra, MIC; settings: 10^6 cells/ml, Gram +
Description: as §1

Shigella sonnei IID 969 = experiment: Antibacterial spectra, MIC; settings: IID969, 10^6 cells/ml, Gram -
Description: as §1

[22] = system: Proteus vulgaris IFO 3167; experiment: Antibacterial spectra, MIC; settings: IFO3167, 10^6 cells/ml, Gram -
Description: as §1

K. pneumoniae 1-220S = experiment: Antibacterial spectra, MIC; settings: Klebsiella pneumoniae, 1220S
[23] = system: Eubacterium lentum GAI 5242; experiment: Antibacterial spectra, MIC; settings: Eggerthella lenta, GAI5242
[24] = system: Staphylococcus aureus 209 P; experiment: Antibacterial spectra, MIC

Compound `COc1c(N2C[C@@H](C)[C@H](N)C2)c(F)cc2c(=O)c(C(=O)O)cn(C3CC3)c12` (relative stereo) [Exp. 6, 7-(trans-3-amino-4-methyl-1-pyrrolidinyl)-1-cyclopropyl-6-fluoro-1,4-dihydro-8-methoxy-4-oxo-3-quinolinecarboxylic acid] has an MIC [1] of 0.0125 µg/mL (≈ 0.0333 µM), an MIC (B. fragilis 25285) of 0.1 µg/mL (≈ 0.266 µM) and an MIC [2] of 0.78 µg/mL (≈ 2.08 µM). It also gave an MIC (B. vulgatus KYA 29327) of 0.2 µg/mL (≈ 0.533 µM), an MIC (P. aeruginosa IID 1210) of 0.78 µg/mL (≈ 2.08 µM) and an MIC [3] of 0.78 µg/mL (≈ 2.08 µM). It also gave an MIC [4] of 0.05 µg/mL (≈ 0.133 µM), an MIC (P. aeruginosa IFO 12689) of 0.78 µg/mL (≈ 2.08 µM) and an MIC [5] of 0.05 µg/mL (≈ 0.133 µM). It also gave an MIC [6] of 0.05 µg/mL (≈ 0.133 µM), an MIC (C. ramosum) of 0.78 µg/mL (≈ 2.08 µM) and an MIC [7] of 0.05 µg/mL (≈ 0.133 µM). The MIC [8] was 3.13 µg/mL (≈ 8.34 µM), the MIC (Pst. micros UPI 5464-1) was 0.2 µg/mL (≈ 0.533 µM) and the MIC [9] was 0.2 µg/mL (≈ 0.533 µM). It also gave an MIC [10] of 0.05 µg/mL (≈ 0.133 µM), an MIC (F. necrophorum S-45) of 0.2 µg/mL (≈ 0.533 µM) and an MIC [11] of at most 0.05 µg/mL. For the same compound, the MIC (E. coli ATCC 10536) was 0.0125 µg/mL (≈ 0.0333 µM), the MIC [12] was 0.2 µg/mL (≈ 0.533 µM) and the MIC (S. pneumoniae IID 552) was 0.1 µg/mL (≈ 0.266 µM). The MIC (B. fragilis 0558) was 0.1 µg/mL (≈ 0.266 µM), the MIC (B. distasonis 8503) was 0.39 µg/mL (≈ 1.04 µM) and the MIC (F. varium KYA 8501) was 1.56 µg/mL (≈ 4.16 µM). It also gave an MIC [13] of 0.05 µg/mL (≈ 0.133 µM), an MIC (S. epidermidis IID 866) of 0.1 µg/mL (≈ 0.266 µM) and an MIC (S. pyogenes IID 692) of 0.1 µg/mL (≈ 0.266 µM). It also gave an MIC (P. mirabilis IID 994) of 0.05 µg/mL (≈ 0.133 µM), an MIC [14] of 0.2 µg/mL (≈ 0.533 µM) and an MIC (P. maltophilia GIFU 2491) of 0.05 µg/mL (≈ 0.133 µM). It also gave an MIC [15] of 0.2 µg/mL (≈ 0.533 µM), an MIC (Bacilus subtilis PCI 219) of 0.0125 µg/mL (≈ 0.0333 µM) and an MIC (P. cepacia GIFU 518) of 0.39 µg/mL (≈ 1.04 µM). For the same compound, the MIC (C. perfringens KYA 13123) was 0.2 µg/mL (≈ 0.533 µM), the MIC [16] was 0.1 µg/mL (≈ 0.266 µM) and the MIC [17] was 0.05 µg/mL (≈ 0.133 µM). For the same compound, the MIC [18] was 0.05 µg/mL (≈ 0.133 µM), the MIC [19] was 0.1 µg/mL (≈ 0.266 µM) and the MIC [20] was 0.1 µg/mL (≈ 0.266 µM). It also gave an MIC (S. aureus Smith) of 0.05 µg/mL (≈ 0.133 µM), an MIC (E. coli ML 4707) of 0.0125 µg/mL (≈ 0.0333 µM) and an MIC (E. faecalis IID 682) of 0.1 µg/mL. It also gave an MIC [21] of 0.05 µg/mL, an MIC (Shigella sonnei IID 969) of 0.0125 µg/mL (≈ 0.0333 µM) and an MIC [22] of 0.05 µg/mL (≈ 0.133 µM). The MIC (K. pneumoniae 1-220S) was 0.05 µg/mL (≈ 0.133 µM), the MIC [23] was at most 0.05 µg/mL and the MIC [24] was 0.025 µg/mL (≈ 0.0666 µM).
